This data set relates to HCT-116 cells. Description: HCT-116 xenograft growth after intratumoral siRNA. It counts as in vivo, BALB/c nu/nu nude mice. Particulars: HCT-116 tumours. On the procedure:
We next examined the effects of TNIK on the growth of human colon cancer cells in vivo (FIG. 2). HCT-116 cells were implanted in the flank of immunodeficient mice. One week after the inoculation, siRNA against TNIK (12 or 13) mixed with atelocollagen (Takeshita, F. et al. Efficient delivery of small interfering RNA to bone-metastatic tumors by using atelocollagen in vivo. Proc Natl Acad Sci USA 102, 12177 (2005)) was injected directly into the tumours (224.5±8.9 mm^3 in size). Three days after the siRNA injection, some tumours were excised and the silencing of TNIK mRNA was confirmed by real-time PCR (FIG. 2b). The volume of xenografts was monitored for 18 days after siRNA injection (FIG. 2a). […] We observed similar regression of established tumours after a single injection of siRNA against TNIK in two other colorectal cancer cell lines, DLD1 and WiDr (FIGS. 3 and 4).
a, HCT-116 cells were inoculated into BALB/c nu/nu nude mice subcutaneously. The developed tumours were not treated, or treated with only atelocollagen, control RNA (X or IX) or siRNA against TNIK (12 or 13). The volume of tumours (n=8 per group) was monitored as indicated. #, P<0.001 (Mann-Whitney U-test); Bars, SE; N.S., not significant. b, mRNA expression of TNIK in tumours injected with siRNA (n=3 per group). c, d, Representative appearance of mice and excised tumours 18 days after the injection of siRNA. Columns indicate the average weight of excised tumours (n=8 per group). $, P<0.005 (Mann-Whitney U-test); Bars, SE.
5×10^6 HCT-116, DLD1 or WiDr cells suspended in 0.1 ml of PBS were subcutaneously inoculated into the flanks of 5-week-old female BALB/c nu/nu nude mice (SLC, Tokyo, Japan). One week later the developed tumours were treated with siRNA together with atelocollagen (AteloGene; KOKEN, Tokyo, Japan) (Takeshita, F. et al. Efficient delivery of small interfering RNA to bone-metastatic tumors by using atelocollagen in vivo. Proc Natl Acad Sci USA 102, 12177 (2005)). The final concentration of siRNA was 30 μM and that of atelocollagen was 0.5%. A 0.2-ml volume of siRNA solution was injected directly into each tumour. Tumour volume was determined as V=A×[…], where A and B represent the largest and smallest dimensions (Bergers, G et al. Effects of angiogenesis inhibitors on multistage carcinogenesis in mice. Science 284, 808 (1999)).

As to “siRNA against TNIK (13): small interfering RNA against TNIK, sense 5′-GACCGAAGCUCUUGGUUACUU-3′, synthesized by Dharmacon (antisense GUAACCAAGAGCUUCGGUCUU; listed as RNA, chemistry not given here)”, for the setting “18 days after the injection of siRNA”, the “excised tumours versus not treated, atelocollagen only or control RNA” value is reported as “significantly smaller”. Also, the volume of xenografts entry (single injection of siRNA with atelocollagen into the tumour, monitored 18 days) is given as “regressed almost completely”.
